Data set [1] has as its system chloroquine-sensitive (NF54) strain of P. falciparum. The experiment in a line: In vitro asexual blood-stage antiplasmodium pLDH assay, NF54 strain. The data set is classed as cell-based. The settings on record: Plasmodium falciparum, NF54; pLDH, 72 h, n ≥ 3; read-out: In vitro antiplasmodium activity IC50 PfNF54 strain. The procedure: Compounds were screened against multi-drug-resistant (K1) and sensitive (NF54) strains of P. falciparum in vitro using a parasite lactate dehydrogenase assay (pLDH) (the method is described fully in the Supporting Information). […]
In vitro Asexual Blood Stage Antiplasmodium Assay
Parasites were cultured as per the method of Trager and Jensen,1 with modifications. IC50 values were determined using parasite lactate dehydrogenase as a marker for survival (Makler […]
et al, 1993). The test samples were prepared to a 10 mmol/L stock solution in 100% DMSO.
Samples were tested as a suspension if not completely dissolved. Further dilutions to the desired starting concentration were freshly prepared in growth media on each occasion of the experiment. The standard antimalarial drugs chloroquine (CQ) and artesunate (Arts) were used as the reference drug in all experiments. A full dose-response was performed for all compounds in a 96-well plate to determine the concentration inhibiting 50% of parasite growth (IC50– value). Test samples were tested at a starting concentration of 6mmol/L, which was then serially diluted 2-fold in growth medium to generate the tested concentration range. The same dilution technique was used for all samples. CQ and Arts were tested from a starting concentration of 1µg/mL. The highest concentration of solvent to which the parasites were exposed was <0.1% and has no measurable effect on the parasite viability (data not shown).
The assay plate was incubated at 37 °C for 72h in a sealed gas chamber under 3% O2 and 4% CO2 with the balance being N2. After 72h, the wells in the assay plate were gently resuspended, and 15µL from each well was transferred to a duplicate plate containing 100µL of Malstat reagent and 25µL of nitroblue tetrazolium solution in each well. Plates were left to develop for 20 minutes in the dark and then absorbance of each well was quantified using a spectrophotometer at 620nm wavelength.
The remaining population of parasites at each concentration of the test compound was determined by comparing the absorbance of each well to the absorbance of a well containing […]
the drug-free control. […]
The initial 100 µg/mL solution is serially diluted 10-

Data set [2] is described as follows: In vitro microsomal stability, human liver microsomes. The data set is classed as in vitro ADME. Particulars: 1 μM, 0.4 mg/mL protein. As to the method:
Xenotech, Kansas, USA), suspended in 0.1 M phosphate buffer (pH 7.4). (Details of this assay are described in the Supporting Information.) page 20: fold to attain six assay concentrations of 100-0.001 μg/mL. […] was used as the reference compound in this assay. The highest concentration of DMSO, which was used as the negative control, had no measurable effect on cell viability. After 44 hours of exposure of the cells to the test compounds, a solution of MTT was added. This was followed by an additional 4 hours of incubation at 37 °C. The assay plates were centrifuged, medium removed, and DMSO was added to the crystals. The amount of formazan was ascertained by measuring the absorbance at 540 nm. GraphPad Prism software was then used to generate IC50 values through a non-linear dose-response curve analysis. β-Hematin Inhibition Assay 20 mM stock solutions of controls and test compounds were made in DMSO. A solution […] was added to every well in columns 1-11 of a 96-well plate. 140 μL of water and 40 μL of 305.5 μM NP-40 were added to column 12 to mediate the formation of beta-hematin. 20 μL of test compounds (20 mM) were added to column 12 and 100 μL of this solution serially diluted to column 2, leaving column 1 blank (0 μM of test compound). 178.8 μL aliquot of hematin stock was suspended in 20 ml of a 1 M acetate buffer at pH 4.9. 100 μL of this hematin suspension was then added into each well, and the plates were incubated for ±5 hrs at 37°C. Subsequently, 32 μL of pyridine solution (20% water, 20% acetone, 10% 2M HEPES buffer at pH 7.4 and 50% pyridine) and 60 μL of acetone were added to all wells. The absorbances of plate wells were recorded at 405 nm on a SpectraMax plate reader. Sigmoidal dose-response curves with variable slopes were fitted to the absorbance data using GraphPad Prism to obtain the IC50 values for each compound. In vitro Microsomal Stability Assay The in vitro microsomal stability assay was performed in duplicate in a 96-well micro titre […] individually in human (pool of 50, mixed gender), rat (pool of 711, male Sprague Dawley) and mouse (pool of 1634, male CD1) liver microsomes (final protein concentration of 0.4 mg/mL; Xenotech, Kansas, USA), suspended in 0.1M phosphate buffer (pH 7.4). Incubations were S20 page 21: started by addition of NADPH (1 mM) as cofactor and shaken for 30 minutes at 37 °C. The reactions were then quenched by adding 300 μL of ice-cold acetonitrile containing internal standard (carbamazepine, 0.0236 μg/mL) and centrifuged. The supernatant was transferred to a fresh 96-well plate and analysed by LC-MS/MS (Agilent Rapid Resolution HPLC, AB SCIEX 4500 MS). The relative loss of parent compound over time was monitored and plots (concentration vs. time) were prepared per compound to determine the first order rate constant for compound depletion. This was in turn used to calculate half-life, in vitro intrinsic clearance and in vivo hepatic extraction ratio.6 Metabolite Identification Studies […] microsomes (MLM, male mouse CD1, Lot No. 1510043, Xenotech), magnesium chloride (5 mM) and NADPH (1 mM) in sodium phosphate buffer (100 mM, pH 7.4) for 60 minutes while shaking. The samples were then prepared by ice-cold acetonitrile precipitation, centrifuged, and filtered for LC-MS/MS analysis. […] Fluorescence Live-cell Microscopy […] […]

As to `CCN(CCNc1cc2[nH]c(C3CCCC3)nc2cn1)Cc1ccc(Cl)cc1O` [Compound 1, 5-Chloro-2-(((2-((2-cyclopentyl-1H-imidazo[4,5-c]pyridin-6-yl)amino)ethyl)(ethyl)amino)methyl)phenol], in data set [1], the IC50 (usually the midpoint of a concentration-inhibition curve) was 340 nM. Further, the “Microsomal EH (hepatic extraction ratio), human” value in data set [2] is 0.60.

`CCN(CCNc1cc2[nH]c(C3CC3)nc2cn1)Cc1ccc(Cl)cc1O` [Compound 5, 5-Chloro-2-(((2-((2-cyclopropyl-1H-imidazo[4,5-c]pyridin-6-yl)amino)ethyl)(ethyl)amino)methyl)phenol]: the IC50 in data set [1] worked out at 390 nM. In addition, the “Microsomal EH (hepatic extraction ratio), human” value in data set [2] amounted to 0.54.

`CCN(CCNc1cc2[nH]c(C3(C)CC3)nc2cn1)Cc1ccc(Cl)cc1O` [Compound 6, 5-Chloro-2-((ethyl(2-((2-(1-methylcyclopropyl)-1H-imidazo[4,5-c]pyridin-6-yl)amino)ethyl)amino)methyl)phenol]: the IC50 in data set [1] came out at 490 nM. For the same compound, the “Microsomal EH (hepatic extraction ratio), human” value in data set [2] was 0.71.

On to `CCN(CCNc1cc2[nH]c(-c3cccc(C(F)(F)F)c3)nc2cn1)Cc1ccc(Cl)cc1O` [Compound 14, 5-Chloro-2-((ethyl(2-((2-(3-(trifluoromethyl)phenyl)-1H-imidazo[4,5-c]pyridin-6-yl)amino)ethyl)amino)methyl)phenol], for which, in data set [1], the IC50 is 80 nM. Also, in data set [2], the “Microsomal EH (hepatic extraction ratio), human” value was found to be 0.85.

Take `CCN(CCNc1cc2[nH]c(-c3ccc(C(F)(F)F)nc3)nc2cn1)Cc1ccc(Cl)cc1O` [Compound 19, 5-Chloro-2-((ethyl(2-((2-(6-(trifluoromethyl)pyridin-3-yl)-1H-imidazo[4,5-c]pyridin-6-yl)amino)ethyl)amino)methyl)phenol]: the IC50 in data set [1] is 380 nM. The “Microsomal EH (hepatic extraction ratio), human” value in data set [2] came out at 0.80.

For the origin of these results see PMC10111423, “Antimalarial Imidazopyridines Incorporating an Intramolecular Hydrogen Bonding Motif: Medicinal Chemistry and Mechanistic Studies” (ACS Infectious Diseases, 2023).
